Numbers after ± are expanded uncertainties.
Columns and labels:
[1] = refractive index (Na D-line) (dimensionless); conditions: 298.15 K; 101.33 kPa; Liquid; Standard Abbe refractometry
[2] = 298.15 K; 101.33 kPa; Liquid

SMILES	refractive index [1]	mass density [2] [kg/m3]
CCO [ethanol]	1.35941 ± 0.00068	–
CO [methanol]	–	786.46 ± 0.26

Source: the NIST ThermoML archive (doi:10.1021/je0602521)
